Structures are written as SMILES. Where a name gives a salt, the structure may show the parent alone.

In test [1] the test system is recombinant guanylate cyclase reporter cell line. As to the kind of experiment: Effect on a recombinant guanylate cyclase reporter cell line. It is filed as cell-based. To be noted: minimum effective concentration; in some cases means of individual determinations; read-out: MEC. As to the method: B-2. Effect on a Recombinant Guanylate Cyclase Reporter Cell Line
The cellular activity of the compounds of the invention is determined using a recombinant guanylate cyclase reporter cell line, as described in F. Wunder et al., Anal. Biochem. 339, 104-112 (2005). Representative values (MEC=minimum effective concentration) for the compounds of the invention are shown in the table below (Table 1; in some cases as means of individual determinations): […]

In test [2] the target is T1, human phosphodiesterase 5 (PDE 5) (Homo sapiens, UniProt O76074).
T1 construct: PDE 5 preparations are obtained from human platelets by disruption; from tissue; host or cells: human platelets
The experiment in a line: Inhibition of human phosphodiesterase 5 (PDE 5). To be noted: PDE 5 preparation from human platelets; in some cases means of individual determinations. It is filed as biochemical. How it is done:
B-3. Inhibition of human phosphodiesterase 5 (PDE 5)
PDE 5 preparations are obtained from human platelets by disruption (Microfluidizer®, 800 bar, 3 passes), followed by centrifugation (75 000 g, 60 min, 4° C.) and ion exchange chromatography of the supernatant on a Mono Q 10/10 column (linear sodium chloride gradient, elution with a 0.2-0.3M solution of sodium chloride in buffer (20 mM Hepes pH 7.2, 2 mM magnesium chloride). Fractions having PDE 5 activity are combined (PDE 5 preparation) and stored at −80° C.
To determine their in vitro action on human PDE 5, the test substances are dissolved in 100% DMSO and serially diluted. Typically, dilution series (1:3) from 200 μM to 0.091 μM are prepared (resulting final concentrations in the test: 4 μM to 0.0018 μM). In each case 2 μl of the diluted substance solutions are placed into the wells of microtitre plates (Isoplate-96/200W; Perkin Elmer). Subsequently, 50 μl of a dilution of the above-described PDE 5 preparation are added. The dilution of the PDE 5 preparation is chosen such that during the later incubation less than 70% of the substrate are converted (typical dilution: 1:100; dilution buffer: 50 mM tris/hydrochloric acid pH 7.5, 8.3 mM magnesium chloride, 1.7 mM EDTA, 0.2% BSA). The substrate, [8-^3H] cyclic guanosine-3′,5′-monophosphate (1 μCi/μl; Perkin Elmer), is diluted 1:2000 with assay buffer (50 mM tris/hydrochloric acid pH 7.5, 8.3 mM magnesium chloride, 1.7 mM EDTA) to a concentration of 0.0005 μμCi/μl. By addition of 50 μl (0.025 μCi) of the diluted substrate, the enzyme reaction is finally started. The test mixtures are incubated at room temperature for 60 min and the reaction is stopped by adding 25 μl of a suspension of 18 mg/ml yttrium scintillation proximity beads in water (phosphodiesterase beads for SPA assays, RPNQ 0150, Perkin Elmer). The microtitre plates are sealed with a film and left to stand at room temperature for 60 min. Subsequently, the plates are analysed for 30 s per well in a Microbeta scintillation counter (Perkin Elmer). IC50 values are determined using the graphic plot of the substance concentration against percentage PDE 5 inhibition.

On to `CC1(C(F)(F)F)C(=O)Nc2nc(-c3nn(Cc4ncccc4F)c4ncc(F)cc34)nc(NCC(N)(CF)CF)c21` (single isomer, unassigned; ent-4) [Example 19, ent-4-{[2-Amino-3-fluoro-2-(fluoromethyl)propyl]amino}-2-{5-fluoro-1-[(3-fluoropyridin-2-yl)methyl]-1H-pyrazolo[3,4-b]pyridin-3-yl}-5-methyl-5-(trifluoromethyl)-5,7-dihydro-6H-pyrrolo[2,3-d]pyrimidin-6-one (Enantiomer A)], for which the minimal effective concentration in test [1] came to 0.07 µM. Also, the IC50 (in general, the concentration needed to halve the response being measured) in test [2] turned out to be 53 nM.
Regarding `CC1(C(F)(F)F)C(=O)Nc2nc(-c3nn(Cc4ncccc4F)c4ncc(F)cc34)nc(NCC(N)(CF)CF)c21` (racemic) [Example 18, rac-4-{[2-Amino-3-fluoro-2-(fluoromethyl)propyl]amino}-2-{5-fluoro-1-[(3-fluoropyridin-2-yl)methyl]-1H-pyrazolo[3,4-b]pyridin-3-yl}-5-methyl-5-(trifluoromethyl)-5,7-dihydro-6H-pyrrolo[2,3-d]pyrimidin-6-one], the minimal effective concentration in test [1] came out at 0.1 µM. In addition, in test [2], the half-inhibitory concentration (IC50) was 100 nM.
The corresponding values for `Cc1nc2c(cc1F)c(-c1nc(NCC(N)(CF)CF)c3c(n1)NC(=O)C3(C)C(F)(F)F)nn2Cc1cccc(F)c1F` (racemic) [Example 6, rac-4-{[2-Amino-3-fluoro-2-(fluoromethyl)propyl]amino}-2-[1-(2,3-difluorobenzyl)-5-fluoro-6-methyl-1H-pyrazolo[3,4-b]pyridin-3-yl]-5-methyl-5-(trifluoromethyl)-5,7-dihydro-6H-pyrrolo[2,3-d]pyrimidin-6-one] are 0.1 µM and 32 nM.
For the molecule `Cc1nc2c(cc1F)c(-c1nc(NCC(N)(CF)CF)c3c(n1)NC(=O)C3(C)C(F)(F)F)nn2Cc1c(F)ccc(F)c1F` (single isomer, unassigned; ent-4) [Example 14, ent-4-{[2-Amino-3-fluoro-2-(fluoromethyl)propyl]amino}-2-[5-fluoro-6-methyl-1-(2,3,6-trifluorobenzyl)-1H-pyrazolo[3,4-b]pyridin-3-yl]-5-methyl-5-(trifluoromethyl)-5,7-dihydro-6H-pyrrolo[2,3-d]pyrimidin-6-one (Enantiomer B)], in test [1], the minimal effective concentration turned out to be 0.1 µM. This molecule also returned a concentration for half-maximal inhibition (IC50) in test [2] of 100 nM.
In the case of `CC1(C)C(=O)Nc2nc(-c3nn(Cc4ccccc4F)c4cc(Cl)ccc34)nc(NCC(N)(CF)CF)c21` [Example 21, 4-{[2-Amino-3-fluoro-2-(fluoromethyl)propyl]amino}-2-[6-chloro-1-(2-fluorobenzyl)-1H-indazol-3-yl]-5,5-dimethyl-5,7-dihydro-6H-pyrrolo[2,3-d]pyrimidin-6-one trifluoroacetate], the minimal effective concentration in test [1] came to 0.3 µM.
Take `CC1(C(F)(F)F)C(=O)Nc2nc(-c3nn(Cc4ncccc4F)c4ncc(F)cc34)nc(NCC(N)(CF)CF)c21` (single isomer, unassigned; ent-4) [Example 20, ent-4-{[2-Amino-3-fluoro-2-(fluoromethyl)propyl]amino}-2-{5-fluoro-1-[(3-fluoropyridin-2-yl)methyl]-1H-pyrazolo[3,4-b]pyridin-3-yl}-5-methyl-5-(trifluoromethyl)-5,7-dihydro-6H-pyrrolo[2,3-d]pyrimidin-6-one (Enantiomer B)]: the minimal effective concentration in test [1] is 0.65 µM. This molecule displayed a 50% inhibitory concentration (IC50) in test [2] of 120 nM.
On to `Cc1nc2c(cc1F)c(-c1nc(NCC(N)(CF)CF)c3c(n1)NC(=O)C3(C)C(F)(F)F)nn2Cc1ccccc1F` (single isomer, unassigned; ent-4) [Example 11, ent-4-{[2-Amino-3-fluoro-2-(fluoromethyl)propyl]amino}-2-[5-fluoro-1-(2-fluorobenzyl)-6-methyl-1H-pyrazolo[3,4-b]pyridin-3-yl]-5-methyl-5-(trifluoromethyl)-5,7-dihydro-6H-pyrrolo[2,3-d]pyrimidin-6-one (Enantiomer B)], for which, in test [1], the minimal effective concentration is on record as 0.1 µM. This molecule registered a concentration for half-maximal inhibition (IC50) in test [2] of 390 nM.
The corresponding values for `Cc1nc2c(cc1F)c(-c1nc(NCC(N)(CF)CF)c3c(n1)NC(=O)C3(C)C(F)(F)F)nn2Cc1ccccc1F` (single isomer, unassigned; ent-4) [Example 10, ent-4-{[2-Amino-3-fluoro-2-(fluoromethyl)propyl]amino}-2-[5-fluoro-1-(2-fluorobenzyl)-6-methyl-1H-pyrazolo[3,4-b]pyridin-3-yl]-5-methyl-5-(trifluoromethyl)-5,7-dihydro-6H-pyrrolo[2,3-d]pyrimidin-6-one (Enantiomer A)] are 0.2 µM and 290 nM.
With `Cc1nc2c(cc1F)c(-c1nc(NCC(N)(CF)CF)c3c(n1)NC(=O)C3(C)C(F)(F)F)nn2Cc1ncccc1F` (single isomer, unassigned; ent-4) [Example 17, ent-4-{[2-Amino-3-fluoro-2-(fluoromethyl)propyl]amino}-2-{5-fluoro-1-[(3-fluoropyridin-2-yl)methyl]-6-methyl-1H-pyrazolo[3,4-b]pyridin-3-yl}-5-methyl-5-(trifluoromethyl)-5,7-dihydro-6H-pyrrolo[2,3-d]pyrimidin-6-one (Enantiomer B)], the minimal effective concentration in test [1] was 0.65 µM.
As to `Cc1nc2c(cc1F)c(-c1nc(NCC(N)(CF)CF)c3c(n1)NC(=O)C3(C)C(F)(F)F)nn2Cc1ncccc1F` (racemic) [Example 15, rac-4-{[2-Amino-3-fluoro-2-(fluoromethyl)propyl]amino}-2-{5-fluoro-1-[(3-fluoropyridin-2-yl)methyl]-6-methyl-1H-pyrazolo[3,4-b]pyridin-3-yl}-5-methyl-5-(trifluoromethyl)-5,7-dihydro-6H-pyrrolo[2,3-d]pyrimidin-6-one], the minimal effective concentration in test [1] amounted to 0.1 µM. The same molecule returned an IC50 in test [2] of 100 nM.
In the same order, the values of `Cc1nc2c(cc1F)c(-c1nc(NCC(N)(CF)CF)c3c(n1)NC(=O)C3(C)C(F)(F)F)nn2Cc1cccc(F)c1F` (single isomer, unassigned; ent-4) [Example 7, ent-4-{[2-Amino-3-fluoro-2-(fluoromethyl)propyl]amino}-2-[1-(2,3-difluorobenzyl)-5-fluoro-6-methyl-1H-pyrazolo[3,4-b]pyridin-3-yl]-5-methyl-5-(trifluoromethyl)-5,7-dihydro-6H-pyrrolo[2,3-d]pyrimidin-6-one (Enantiomer A)] are 0.3 µM and 120 nM.
For `Cc1nc2c(cc1F)c(-c1nc(NCC(N)(CF)CF)c3c(n1)NC(=O)C3(C)C)nn2Cc1c(F)ccc(F)c1F` [Example 3, 4-{[2-Amino-3-fluoro-2-(fluoromethyl)propyl]amino}-2-[5-fluoro-6-methyl-1-(2,3,6-trifluorobenzyl)-1H-pyrazolo[3,4-b]pyridin-3-yl]-5,5-dimethyl-5,7-dihydro-6H-pyrrolo[2,3-d]pyrimidin-6-one], in test [1], the minimal effective concentration was 0.03 µM. 194 nM corresponded to half-maximal inhibition in test [2] (IC50).
In the same order, the values of `Cc1nc2c(cc1F)c(-c1nc(NCC(N)(CF)CF)c3c(n1)NC(=O)C3(C)C(F)(F)F)nn2Cc1c(F)ccc(F)c1F` (single isomer, unassigned; ent-4) [Example 13, ent-4-{[2-Amino-3-fluoro-2-(fluoromethyl)propyl]amino}-2-[5-fluoro-6-methyl-1-(2,3,6-trifluorobenzyl)-1H-pyrazolo[3,4-b]pyridin-3-yl]-5-methyl-5-(trifluoromethyl)-5,7-dihydro-6H-pyrrolo[2,3-d]pyrimidin-6-one (Enantiomer A)] are 0.3 µM and 300 nM.
In the same order, the values of `Cc1nc2c(cc1F)c(-c1nc(NCC(N)(CF)CF)c3c(n1)NC(=O)C3(C)C(F)(F)F)nn2Cc1ncccc1F` (single isomer, unassigned; ent-4) [Example 16, ent-4-{[2-Amino-3-fluoro-2-(fluoromethyl)propyl]amino}-2-{5-fluoro-1-[(3-fluoropyridin-2-yl)methyl]-6-methyl-1H-pyrazolo[3,4-b]pyridin-3-yl}-5-methyl-5-(trifluoromethyl)-5,7-dihydro-6H-pyrrolo[2,3-d]pyrimidin-6-one (Enantiomer A)] are 0.07 µM and 57 nM.

The record behind these values is patent US20170240566A1, “AMINO-SUBSTITUTED ANNULATED PYRIMIDINES AND USE THEREOF” (Bayer Pharma Aktiengesellschaft, priority 2014, published 2017).
